Data set [1] is described as follows: Fluorescent plate reader assay of quenching by food dyes. From the text:
FIG. 21: Food dyes efficiently quench FAM-NP41 bladder fluorescence. A fluorescent plate reader assay was used to show dose dependent quenching of FAM-NP41 fluorescence. Erythrosine extra bluish (Santa Cruz Biotechnology, Inc.) was the most efficient quencher with >80% quenching at 2.5 times dye to fluorescein ratio and >95% quenching at 5× dye to fluorescein ratio (A). Other food dyes tested included Allura Red and Sunset Yellow. To test for quenching in-vivo we administered, by direct iv injection, 50 mg/kg MW 879.76 (^˜1.5 μmoles per 25 gm mouse) to mice that had been injected with 150 nmoles of FAM-NP41 2 hours prior. This represents approximately a 10× dye to FAM-NP41 dose. Some bladder fluorescence remained after imaging so additional dye (30 μl, 10 mM Erythrosin extra bluish) was injected directly into the bladder. Images are shown for mouse bladder with no dye quencher (B) and addition of Erythrosine extra bluish (intravenous and intra bladder) (C) with bladder fluorescence quench to near background level. Dye would likely not be needed if this method was used for human patients as bladder catheterization in patients could be started as FAM-NP41 is administered so bladder fluorescence could be washed out.

Another data set concerns human sural nerve. Briefly: Topical application of FAM-labelled peptides on human nerve sections. Type of data set: binding. Conditions: for normalized average signal intensity (normalized to FAM-HNP401): 100 μM FAM labelled, human sural nerve sections; for binding / contrast among peptides and controls screened on human nerve: 100 μM topical, sural nerve and temporalis muscle. An excerpt:
To determine the affinity of phage selected peptides for binding to human nerve they were chemically synthesized by solid-phase synthesis and labeled with fluorescein at the C-terminus via a GGC linker. Peptides were topically applied to sectioned human sural nerve and human temporalis muscle to determine nerve to muscle contrast. […] To confirm binding and contrast of HNP401 for additional nerve types binding was compared in nerve and muscle with both HNP401 and NP41 on facial brachial plexus nerve (FIG. 9). […] FAM-HNP401 was additionally tested topically on ex-vivo tissue for labeling of mouse facial nerve with surrounding muscle (FIG. 10, J-M).
To test the affinity of selected phage display peptides for binding to human nerves, they were chemically synthesized by solid-phase synthesis and labeled with fluorescein at the C-terminus. Peptides were topically applied to sections of surgically harvested human sural nerve and temporalis muscle to determine nerve to muscle contrast for selected peptides and controls (FIG. 23). […] To quantify differential binding to nerve versus muscle, fluorescence signal intensity was measured for ROIs from the perineurium of select nerves and human temporalis muscle.
Human sural nerve, antebrachial nerve and laryngeal nerve and temporalis muscle were obtained under IRB protocol number 130837 for Dr. Quyen Nguyen. Human peripheral nerves (typically sural) were obtained from patients undergoing nerve resection procedures. Human nerves from prostate gland of two patients were acquired under Moores Cancer Centre Biorepository IRB protocol number 090401. Tissue were sectioned and mounted on glass slides or Cryojane tape. Tissue sections were placed in a humidifier chamber for 30 min before application of the peptide solution. Peptides were diluted to appropriate concentration in 0.5×HBSS prior to topical application. 50 μl of peptide solution of with known concentration (1 μM to 375 μM) were applied to 10 μm nerve sections on tape or slides and incubated for 30 minutes in a humidifier chamber. After incubation with peptide nerve sections were washed with twice with 0.5×HBSS and once with 1×PBS. A cover-slip was applied and slides were imaged immediately on either a Zeiss Lumar dissecting scope of Nikon A1 confocal microscope. For confocal imaging tissue sections of 10 μm thickness were imaged with 488 nm laser excitation 515 (25) and a 10× air objective and a […] size. For immunohistochemistry the confocal Images were acquired with a 20× air objective at 0.4 μm/pixel.
Image J was used to analyze and compare images acquired using the confocal microscope and the Lumar dissecting scope. For each experimental set where probes were compared, we kept the acquisition parameters identical so as to directly compare the data obtained. […] All raw image files for a given experimental cohort were loaded at the same time into Image J as 16-bit tiff images. We then levelled the image for tissue treated with FAM-HNP401. Once these levels were set, the settings are propagated to all images in one step using Image J. The brightest image is set as the benchmark for all other images in the cohort to avoid saturating when the leveling is propagated.

Data set [2] concerns sciatic nerve. Particulars: live mice, reference [22]; cited from earlier work.
The test system of data set [3] is autonomic nerves within the prostate. Briefly: In-vivo imaging of autonomic nerves within the prostate of mice. Conditions: rodent models. The protocol:
To visualize the autonomic nerves within the prostate of mice, NP41 peptide conjugated to fluorescein (FAM-NP41) was injected intravenously followed by imaging of prostate and surrounding tissue after surgical resection. Strong fluorescence from dye that rapidly accumulates in the bladder hindered visualization of the nerves within the prostate. To enhance visualization the bladder was surgically drained of urine and sutured prior to imaging. The urethra, an anatomically distinct structure, is never emptied of urine as the mice are alive for the duration of the experiment, resulting in a continuous passage of urine carrying metabolized peptide-dye to the bladder […]. […] To quantify nerve detection a total of 10 mice were injected with 600 nmoles FAM-NP41 and signal intensity was measured for nerve versus adjacent non-nerve tissue using both fluorescence and white light reflectance. Values to the right of the line indicate that there is improved visualization with fluorescence compared to reflected light. […]
Following anesthesia with intra-peritoneal injection of ketamine (80 mg/kg) and midazolam (40 mg/kg), FAM-NP41 or its variants were administered into mice retro-orbitally. […] The autonomic nerve along the cavernosal vessel in the prostate was imaged and recorded using a custom-made surgical imaging system. […]

Data set [4] has as its system sciatic nerve. Type of data set: in vivo, mice. How it is done:
Either 150 or 450 nmoles of fluorescein labeled synthetic peptides were injected intravenously into mice. After a 2 hour waiting period for washout of nonspecific binding, mice were anesthetized and skin incisions were made over the dorsal surface of the hind legs to expose the sciatic nerve. Brightfield and fluorescent images were obtained with a dissecting microscope using Metamorph software (FIG. 1). Quantitation of fluorescence of nerves and adjacent non-nerve tissue was performed with Image J (FIG. 2). Peptides were also topically applied to human nerve sections. Nerves were freshly frozen in OTC prior to sectioning. Peptides were topically applied at concentration at 300 uM with images being shown for HNP401, HNP402, HNP404 and previous reported nerve binding peptides NP41 (FIG. 3)). Also shown are images for variants HNP301 ([…]) and NP124. NP713 was also tested and has not reported in a publication. NP713, is a derivative of NP41 with sequence […] that was enriched after 7 rounds of selection against mouse tissue, and was also found after 4 rounds of selection against human tissue. […] All D-amino acid controls for NP-41 and NP713 and non peptide conjugated carboxyfluorescein, are also shown. […] HNP401 was then tested for labeling of rat sciatic and rat prostate cavernosal nerve in-vivo. […] FIGS. 6 and 7 show in-vivo labeling of rat prostate cavernosal nerve with comparison to white light visualization.
Following anesthesia with intra-peritoneal injection of ketamine (80 mg/kg) and midazolam (40 mg/kg), FAM-NP41 or its variants were administered into mice retro-orbitally. After a washout period of 2-4 hours, the animals were anesthetized with ketamine (50 mg/ml) and xylazine (20 mg/ml). The bladder and prostate were exposed through a midline abdominal incision. The autonomic nerve along the cavernosal vessel in the prostate was imaged and recorded using a custom-made surgical imaging system. This system is a modified from Olympus MVX10 scope capable of hi-resolution fluorescence, RGB reflectance and realtime overlay with zoom from 0.6 to 5.7 cm field of view. Image) was used for quantitative analysis of nerve contrast for each peptide dye conjugate tested. Images of autonomic nerve in prostate were selected from the recorded files and magnified 300-400% prior to selection of ROI and measurement. Nerves and adjacent non-nerve tissues ROIs were hand-selected using polygonal selection tool at the same location from both of reflectance and fluorescence images. The mean and standard deviation of the pixel intensities within the selected areas were compared for nerves (mean=In, SD=σn) and adjacent background tissue (mean=Ib, SD=σb). Nerve to non-nerve contrast was calculated after background subtraction with formula |In−Ib|/(σn^2+σm^2)^0.5. For imaging the nerves in the prostate gland of male rats peptide dye conjugate were injected retro-orbitally. FAM-HNP401 was injected at a concentration of 13 mgs/kg followed by imaging after 15 minutes or alternatively a dose of 52 mgs/kg was used with imaging after 3 hours. Live animal surgery was performed under a ketamine-xylazine cocktail according to IACUC protocol. Sterile technique was used to expose the prostate; bladder was drained with a small syringe and sutured. The surgical field was washed with sterile saline prior to imaging. Mann-Whitney test was used to analyze data for both mice and rats to compare nerve intensity and nerve to non-nerve contrast between white light reflectance and fluorescence.

Data set [5] relates to autonomic nerve within the prostate. Briefly: In-vivo imaging of autonomic nerve within the prostate of rats. Particulars: rat prostate cavernosal nerve, live rats.

In the case of `O.O=C([O-])c1ccccc1-c1c2cc(I)c(=O)c(I)c-2oc2c(I)c([O-])c(I)cc12.[Na+].[Na+]` [Erythrosine extra bluish], the “quenching of FAM-NP41 fluorescence” value in data set [1] (2.5 times dye to fluorescein ratio) is recorded as over 80%; in data set [1] (5× dye to fluorescein ratio), over 95%. As to “EEPYYVVKKSS [HNP401-N-6, tested FAM labelled]”, in the data set on human sural nerve, the “normalized average signal intensity (normalized to FAM-HNP401)” value (shortened to “normalized average signal intensity”) is 1.0±0.34.

Turning to NTQTLAKAPEHT [NP41, reference compound], the “time to almost complete wash out after systemic injection” value with sciatic nerve [2] is at most 24 h. In addition, the “average increase in nerve to non-nerve signal, fluorescence vs white light reflectance” value in data set [3] is recorded as 17%. For the same compound, in the data set on sciatic nerve [4] (450 nmols, FAM-labelled peptide, living wild type mice, FIG. 2), the “contrast (nerve fluorescent intensity/muscle fluorescent intensity)” value came to 6.7 fold. For the same compound, the washout from nerve entry in the data set on sciatic nerve [4] (mouse, in vivo) is “little remaining signal after 24 hours”. With “PWEEPYYVVKKSS [HNP401-N-4, tested FAM labelled]”, in the data set on human sural nerve, the “normalized average signal intensity” value worked out at 0.56±0.18. Still for that read-out and setting: the same measure for “PYYVVKKSS [HNP401-N-8, tested FAM labelled]”: 0.98±0.31. For the compound “QVPWEEPYYVVKKSS [HNP401-N-2, tested FAM labelled]”, the “average signal intensity (nerve binding of deletion variants)” value in the data set with human sural nerve (100 uM FAM labelled, human nerve sections, n=5) is on record as 1498.73 (+/−517.63). Further, the “normalized average signal intensity” value with human sural nerve is reported as 2.02±0.65. The “Normalized nerve to temporalis muscle contrast, increase with respect to FAM-HNP401” value with human sural nerve (human sural nerve vs temporalis muscle) amounted to 3 fold. With SGQVPWEEPYYVVKK [tested FAM labelled], the “effect of terminal deletion on binding” value in the data set on human sural nerve (removal of C-terminal serine) was “tolerated”. For the compound SHSSEFPRSWDMETN [HNP301], the “contrast for prostate nerve labeling compared to HNP401” value in data set [5] is given as “not showing as much contrast”.

For the compound carboxyfluorescein [reference compound], the “binding / contrast among peptides and controls screened on human nerve” value in the data set with human sural nerve is “only weak non-specific binding”; with human sural nerve (listed as Carboxyfluorescein), “low signal and non-specific binding”.

Source of the values: patent US11299515B2, “Optimized peptides for targeting human nerves and their use in image guided surgery, diagnostics and therapeutic” (The Regents of the University of California, priority 2017, dated 2022).
